{"source": "paper PMC10649572", "about": "(International Journal of Molecular Sciences, 2023)", "origin": "cited, not measured here", "biological_target": "T1, CaM^WT (Homo sapiens, UniProt P0DP23)", "T1 construct": "made in house; host or cells: Escherichia coli BL21-CodonPlus(DE3)", "details": "in the presence and absence of Ca^2+; ref [38]", "note": "No end group written: not given here."}
{"sequence": "LMRMLSLKSLKKQMKKV [Peptide F]", "values": [{"measurement": "interaction with CaM", "result": "significant affinity"}]}
